Laboratory results published in patent US8097422B2, “Kir channel modulators” (Salk Institute for Biological Studies, priority 2007, dated 2012).
Where a chain is given by its changes, count along the chain named.

Legend:
Assay type in all cases: cell-based
[1] = test system: GIRK2 L257Y mutant channel; test: whole-cell patch clamp, GIRK2 L257Y mutant channel; details: n=9; for activation of GIRK2 L257Y, percentage change from basal current: alcohols as for wild type (100 mM)
Description: (§1) Point mutations were introduced by Quickchange site directed mutagenesis kit (Stratagene). The GIRK2 PIP mutant was generated by overlap-PCR method. […] Mutations were confirmed by automated DNA sequencing methods. […] Cells were plated in a 12 well dish, and were transiently transfected using Lipofectamine 2000 (Invitrogen). After 12-24 hrs, cells were re-plated to 12-mm glass coverslips coated with poly-D-[…] microgram/ml). […] The cells were co-transfected with 0.04 micrograms of eYFP cDNA to identify transfected cells. 0.8 micrograms of Muscarinic Receptor 2 (M2R) was also co-transfected for experiments with Carbachol. […] Whole-cell patch clamp recordings were performed 24-72 hrs after transfection. […] Alcohols, 5 μM Carbachol, and 1 mM BaCl2 (diluted in 20K solution) were applied from outside the cell with the rapid perfusion system (Warner Instruments). […] Current-voltage relationships also were obtained from the ramp protocol. This protocol was used to measure the inwardly rectifying currents at -100 mV and to ensure stability of recording by monitoring a reversal potential and inward rectification. […] Alcohol and Carbachol modulated currents were measured by averaging two consecutive current readings upon reaching steady state, and subtracting the averaged basal current before and after the application of modulator.

[2] = target: T1, GIRK2 L257W mutant channel (Mus musculus, UniProt P48542, L257W); test: whole-cell patch clamp, GIRK2 L257W mutant channel; details: n=9; for modulation of GIRK2 L257W, percentage change from basal current (negative = inhibition): alcohols as for wild type (100 mM)
T1 construct: expressed in transfected cells; host or cells: HEK293T
T1 sequence (P48542 1-425 L257W): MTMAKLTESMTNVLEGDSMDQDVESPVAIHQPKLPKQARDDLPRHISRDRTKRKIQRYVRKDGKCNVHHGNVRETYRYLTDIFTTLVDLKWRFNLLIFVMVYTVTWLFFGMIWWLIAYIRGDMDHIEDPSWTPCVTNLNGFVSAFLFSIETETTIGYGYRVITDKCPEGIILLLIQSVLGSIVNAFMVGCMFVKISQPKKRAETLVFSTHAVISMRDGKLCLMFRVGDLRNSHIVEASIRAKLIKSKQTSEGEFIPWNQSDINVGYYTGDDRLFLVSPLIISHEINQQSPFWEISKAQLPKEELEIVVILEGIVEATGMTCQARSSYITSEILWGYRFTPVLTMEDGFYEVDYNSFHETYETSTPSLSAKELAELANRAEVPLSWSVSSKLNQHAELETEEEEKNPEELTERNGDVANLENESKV
Description: as §1

GIRK4 = target: T2, GIRK4 (Rattus norvegicus, UniProt P48548); test: whole-cell patch clamp, GIRK4 homo-tetramers; details: n=7
T2 construct: expressed in transfected cells; host or cells: HEK293 / HEK293T
T2 sequence (P48548 1-419): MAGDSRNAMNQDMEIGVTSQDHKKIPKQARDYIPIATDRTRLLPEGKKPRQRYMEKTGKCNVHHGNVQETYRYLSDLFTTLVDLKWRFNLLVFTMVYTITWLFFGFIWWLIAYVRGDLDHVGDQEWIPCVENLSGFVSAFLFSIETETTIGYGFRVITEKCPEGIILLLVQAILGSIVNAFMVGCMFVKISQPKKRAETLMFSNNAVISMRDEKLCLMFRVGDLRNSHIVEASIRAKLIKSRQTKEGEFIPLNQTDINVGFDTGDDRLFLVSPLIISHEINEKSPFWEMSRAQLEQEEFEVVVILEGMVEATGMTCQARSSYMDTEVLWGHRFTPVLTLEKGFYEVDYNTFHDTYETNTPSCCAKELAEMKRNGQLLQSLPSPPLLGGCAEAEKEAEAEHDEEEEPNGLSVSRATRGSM
Description: as §1

[3] = target: T3, GIRK4* Leu252 to Tyr mutant channel (Rattus norvegicus, UniProt P48548, L252Y/S143T); test: whole-cell patch clamp, GIRK4* L252Y mutant channel; details: for activation of GIRK4* Leu252 to Tyr mutant, percentage change from basal: n=8
T3 construct: expressed in transfected cells; host or cells: HEK293 / HEK293T
T3 sequence (P48548 1-419 S143T/L252Y): T2 sequence (P48548 1-419) with S143T, L252Y
Description: as §1

[4] = target: T4, GIRK4* L252W mutant channel (Rattus norvegicus, UniProt P48548, L252W/S143T); test: whole-cell patch clamp, GIRK4* L252W mutant channel; details: for modulation of GIRK4* L252W mutant channel, percentage change from basal (negative = inhibition): n=8
T4 construct: expressed in transfected cells; host or cells: HEK293 / HEK293T
T4 sequence (P48548 1-419 S143T/L252W): T2 sequence (P48548 1-419) with S143T, L252W
Description: as §1

[5] = 5 μM Carbachol, M2R co-transfected

modulation of GIRK2 L257W, percentage change from basal current (negative = inhibition) [2] | modulation of GIRK4 currents, mean percentage change from basal (negative = inhibition) (GIRK4) | activation of GIRK4* Leu252 to Tyr mutant, percentage change from basal [3] | modulation of GIRK4* L252W mutant channel, percentage change from basal (negative = inhibition) [4] | G-protein mediated activation, GIRK2 L257W, percentage change from basal current [2, 5] | Carb (G-protein mediated) activation, GIRK4* L252 Tyr ([3]; 5 μM Carbachol) | Carb (G-protein mediated) activation, GIRK4* L252 Trp ([4]; 5 μM Carbachol) | Compound | activation of GIRK2 L257Y, percentage change from basal current [1] | Carbachol activation, GIRK2 L257Y, percentage change from basal current [1, 5]
−97±4% | 55±8% | – | – | – | – | – | CC(O)CC(C)(C)O (racemic) [MPD, 2-methyl-2,4-pentanediol] | 73±10% | –
34±3% | 43±6% | 20±3% | 5±2% | – | – | – | CCO [EtOH, ethanol] | 92±10% | –
57±6% | 43±7% | 15±3% | −19±2% | – | – | – | 1-propanol [1-PrOH] | 275±34% | –
– | −70±3% | – | – | – | – | – | 1-butanol [1-BuOH] | – | –
– | – | – | – | 12±2% | 110±14% | 23±3% | C[N+](C)(C)CCOC(N)=O [Carbachol] | – | 38±11%
